From ChEMBL document CHEMBL1208715, “Cyclic amide bioisosterism: strategic application to the design and synthesis of HCV NS5B polymerase inhibitors” (Bioorg Med Chem Lett, 2010)

Tests used:
Hepatitis C virus = assay: Antiviral activity against […] Con1 GT1b infected in HuH7 cells by replicon assay; assay type: functional, Hepacivirus hominis; settings: Huh-7
[1] = Cytotoxicity against human HuH7 cells by WST-1 assay; assay type: cell-based, Huh-7
[2] = Inhibition of HCV GT1b NS5B polymerase; design: species or system Hepacivirus hominis
[3] = target: RNA-directed RNA polymerase (Hepacivirus hominis, UniProt O39930, L419M); assay: Inhibition of HCV NS5B polymerase L419M mutant
RNA-directed RNA polymerase (Hepacivirus hominis, UniProt O39930, L419M), sequence (O39930 entry or part of it L419M): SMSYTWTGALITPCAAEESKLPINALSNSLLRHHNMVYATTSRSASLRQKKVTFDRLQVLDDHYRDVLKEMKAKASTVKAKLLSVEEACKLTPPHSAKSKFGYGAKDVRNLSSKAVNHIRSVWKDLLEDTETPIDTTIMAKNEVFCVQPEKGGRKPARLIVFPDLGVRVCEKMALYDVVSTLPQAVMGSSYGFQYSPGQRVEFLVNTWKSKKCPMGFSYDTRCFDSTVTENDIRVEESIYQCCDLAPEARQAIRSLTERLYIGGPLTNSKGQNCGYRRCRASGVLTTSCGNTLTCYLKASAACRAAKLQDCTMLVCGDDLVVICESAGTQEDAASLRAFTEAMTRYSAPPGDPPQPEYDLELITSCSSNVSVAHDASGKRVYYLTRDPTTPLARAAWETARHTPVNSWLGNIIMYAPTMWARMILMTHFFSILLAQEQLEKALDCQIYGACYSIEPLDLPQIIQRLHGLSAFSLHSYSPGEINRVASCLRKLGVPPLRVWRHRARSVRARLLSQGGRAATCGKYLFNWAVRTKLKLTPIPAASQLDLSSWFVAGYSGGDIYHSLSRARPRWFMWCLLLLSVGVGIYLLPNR

[4] = target: RNA-directed RNA polymerase (Hepacivirus hominis, UniProt O39930, M414T); assay: Inhibition of HCV NS5B polymerase M414T mutant
RNA-directed RNA polymerase (Hepacivirus hominis, UniProt O39930, M414T), sequence (O39930 entry or part of it M414T): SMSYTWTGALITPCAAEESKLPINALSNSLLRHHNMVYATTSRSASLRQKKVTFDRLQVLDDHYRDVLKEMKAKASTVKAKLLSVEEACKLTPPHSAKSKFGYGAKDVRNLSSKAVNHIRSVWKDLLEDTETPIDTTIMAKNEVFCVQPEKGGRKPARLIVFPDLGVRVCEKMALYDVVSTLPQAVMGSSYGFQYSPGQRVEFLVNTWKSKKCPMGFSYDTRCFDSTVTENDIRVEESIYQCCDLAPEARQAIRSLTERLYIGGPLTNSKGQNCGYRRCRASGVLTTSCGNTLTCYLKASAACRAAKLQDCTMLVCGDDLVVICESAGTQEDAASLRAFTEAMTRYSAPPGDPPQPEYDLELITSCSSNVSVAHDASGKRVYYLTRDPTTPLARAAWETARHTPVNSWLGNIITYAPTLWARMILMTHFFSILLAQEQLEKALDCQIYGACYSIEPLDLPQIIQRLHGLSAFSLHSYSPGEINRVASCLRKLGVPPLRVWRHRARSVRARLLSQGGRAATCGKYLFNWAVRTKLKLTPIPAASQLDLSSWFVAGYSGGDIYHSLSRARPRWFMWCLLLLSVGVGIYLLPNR

[5] = Inhibition of wild type HCV GT1b NS5B polymerase; design: species or system Hepacivirus hominis

Row | SMILES | IC50 [2] [nM] | other results
1 | Cc1ccc(-n2nncc2-c2cc(-c3ccccc3)sc2C(=O)O)cc1 | 110 | Kd [3]: 23100 nM; EC50 (Hepatitis C virus): > 30000 nM; CC50 [1]: > 30000 nM; Kd [4]: 3990 nM; Kd [5]: 4320 nM
2 | C[C@H]1CC[C@H](n2nncc2-c2cc(-c3ccccc3)sc2C(=O)O)CC1 | 100 | Kd [3]: 4480 nM; EC50 (Hepatitis C virus): 15000 nM; CC50 [1]: > 50000 nM; Kd [4]: 597 nM; Kd [5]: 860 nM
3 | CCCCOc1ccccc1-c1cc(-c2ccccc2)sc1C(=O)O | 16000 | –
4 | O=C(O)c1sc(-c2ccccc2)cc1-c1cc(=O)[nH]nc1-c1ccccc1 | 92000 | –
5 | O=C(O)c1sc(-c2ccccc2)cc1-c1cnnn1-c1ccccc1 | 17000 | –
6 | O=C(O)c1sc(-c2ccccc2)cc1-c1conc1-c1ccccc1 | 29000 | –
7 | C[C@H]1CC[C@H](c2cc(-c3cc(-c4ccccc4)sc3C(=O)O)on2)CC1 | 32000 | –
8 | CC(C)N(c1cc(-c2ccccc2)sc1C(=O)O)C(=O)[C@H]1CC[C@H](C)CC1 | 28 | Kd [3]: 427 nM; EC50 (Hepatitis C virus): 230 nM; CC50 [1]: 48000 nM; Kd [4]: 33 nM; Kd [5]: 41 nM

More lines, in order of falling IC50 [2], values ahead:

Row | IC50 [2] [nM] | SMILES | other results
9 | 5700 | O=C(O)c1sc(-c2ccccc2)cc1-c1conc1-c1ccc(F)cc1 | –
10 | 3300 | Cc1ccc(-c2cc(=O)[nH]nc2-c2cc(-c3ccccc3)sc2C(=O)O)cc1 | –
11 | 2600 | O=C(O)c1sc(-c2ccccc2)cc1-c1conc1-c1ccc(Cl)cc1 | –
12 | 2500 | Cc1ccc(-c2nocc2-c2cc(-c3ccccc3)sc2C(=O)O)cc1 | –
13 | 620 | Cc1ccc(-c2cc(=O)[nH]n2-c2cc(-c3ccccc3)sc2C(=O)O)cc1 | –
14 | 340 | O=C(O)c1sc(-c2ccccc2)cc1-c1cnnn1C1CCCCC1 | –
15 | 170 | CC1CCC(=Cc2ncccc2-c2cc(-c3ccccc3)sc2C(=O)O)CC1 (stereo unspecified) | –
16 | 110 | C[C@H]1CC[C@H](c2nocc2-c2cc(-c3ccccc3)sc2C(=O)O)CC1 | –
17 | 74 | O=C(O)c1sc(-c2ccccc2)cc1-c1conc1C1CCCCC1 | –
18 | 42 | C[C@H]1CC[C@H](c2ccccc2-c2cc(-c3ccccc3)sc2C(=O)O)CC1 | EC50 (Hepatitis C virus): 12000 nM; CC50 [1]: 20000 nM
19 | 22 | C[C@H]1CC[C@H](c2ncccc2-c2cc(-c3ccccc3)sc2C(=O)O)CC1 | –
